Assay results published in US5506122A, “Process for producing nucleosides” (Yamasa Shoyu Kabushiki Kaisha, priority 1989, dated 1996).
Like-named read-outs stand apart in the source and are kept apart here.

What was measured:
[1] = biological target: T1, pyrimidine nucleoside phosphorylase (Geobacillus stearothermophilus, UniProt P77836); experiment: Substrate specificity: phosphorolysis of pyrimidine nucleoside substrates by purified enzyme; assay type: biochemical, Bacillus stearothermophilus TH6-2; conditions: for Amount of Base Formed / Relative Activity: 10 mM nucleoside, 50 mM potassium dihydrogenphosphate, pH 8.0, 50° C., 10 minutes; for Substrate specificity of pyrimidine nucleoside phosphorylase, in words: within the range tested
T1 construct: nucleoside phosphorylase obtained by extraction/purification from Bacillus stearothermophilus TH6-2; endogenous in cells; host or cells: Bacillus stearothermophilus TH6-2 (FERM BP-2758), enzyme purified in house from the wild cells
T1 sequence (P77836 1-433): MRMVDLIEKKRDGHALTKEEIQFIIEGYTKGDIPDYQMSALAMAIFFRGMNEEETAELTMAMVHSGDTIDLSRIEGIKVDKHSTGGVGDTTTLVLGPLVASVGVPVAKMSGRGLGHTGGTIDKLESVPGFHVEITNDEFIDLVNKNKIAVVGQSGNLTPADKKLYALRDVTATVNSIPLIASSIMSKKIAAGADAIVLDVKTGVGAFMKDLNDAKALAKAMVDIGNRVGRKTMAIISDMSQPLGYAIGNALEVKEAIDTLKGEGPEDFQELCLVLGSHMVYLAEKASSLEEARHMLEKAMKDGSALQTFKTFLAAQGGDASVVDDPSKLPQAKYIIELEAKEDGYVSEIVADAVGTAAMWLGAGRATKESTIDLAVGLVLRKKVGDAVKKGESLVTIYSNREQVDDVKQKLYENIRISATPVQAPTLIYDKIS
Procedure: Except for using uridine in place of inosine in the substrate solution and quantitating uracil according to the HPLC method, the same method as in the above-described assay of purine nucleoside phosphorylase activity is conducted. The amount of enzyme forming 1 μmol of uracil per one minute is defined as one unit.
(§1) By the use of an aqueous solution of pH 8.0 containing 10 mM of a nucleoside and 50 mM of potassium dihydrogenphosphate as a substrate solution, the reaction is carried out at 50° C. for 10 minutes, and after the reaction, except for quantitating the base of the nucleoside according to the HPLC method, the same method as in the assay of purine nucleoside phosphorylase activity is conducted.

[2] = biological target: T2, purine nucleoside phosphorylase (Geobacillus stearothermophilus, UniProt P77834); experiment: Substrate specificity: phosphorolysis of purine nucleoside substrates by purified enzyme; assay type: biochemical, Bacillus stearothermophilus TH6-2; conditions: for activity at 10000 µM: 10 min; for Substrate specificity of purine nucleoside phosphorylase, in words: within the range tested
T2 construct: nucleoside phosphorylase obtained by extraction/purification from Bacillus stearothermophilus TH6-2; endogenous in cells; host or cells: Bacillus stearothermophilus TH6-2 (FERM BP-2758), enzyme purified in house from the wild cells
T2 sequence (P77834 1-274): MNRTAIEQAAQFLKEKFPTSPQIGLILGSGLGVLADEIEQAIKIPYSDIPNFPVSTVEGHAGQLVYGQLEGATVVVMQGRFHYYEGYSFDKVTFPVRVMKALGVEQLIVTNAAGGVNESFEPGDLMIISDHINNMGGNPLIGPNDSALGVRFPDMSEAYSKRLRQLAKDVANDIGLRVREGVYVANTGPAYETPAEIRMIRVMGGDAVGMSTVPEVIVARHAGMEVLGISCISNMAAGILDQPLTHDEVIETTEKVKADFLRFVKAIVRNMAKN
Procedure: Into 1.0 ml of a substrate solution (aqueous solution of pH 8.0 containing 20 mM inosine and 0.1M potassium dihydrogenphosphate) is added 20 μl of an enzyme solution (50 mM acetate buffer (pH 6.0) containing 1 μg of purified enzyme), and the reaction is carried out at 50° C. for 10 minutes. Then the reaction is stopped by addition of HCl to a final concentration of 0.1N, and also cooling at 0° C. for 10 minutes. Next, the reaction is subjected to centrifugation, and the supernatant obtained is then subjected to the HPLC method (column: YMC A-312 (manufactured by Yamamura Kagaku Kenkyusho, K.K.), eluent: 20 mM Tris-HCl buffer (pH 7.5) containing 5.0% acetonitrile, detection: 260 nm) to quantitate the hypoxanthine formed. The enzyme amount forming 1 μmol of hypoxanthine per one minute is defined as one unit ("U").
as §1

[3] = 10 mM nucleoside, 50 mM potassium dihydrogenphosphate, pH 8.0, 50° C., 10 minutes
[4] = 10 mM nucleoside, 50 mM potassium dihydrogenphosphate, pH 8.0, 50° C., 10 minutes, read-out: Relative Activity
[5] = pH 8, read-out: Relative Activity

Structure (SMILES) | Amount of Base Formed [1] [μmol/10 min.] | Relative Activity [1] [%] | Amount of Base Formed [2, 3] [μmol/10 min.] | activity at 10000 µM [2, 4] [%] | further results
O=c1ccn2c(n1)O[C@H]1[C@H](O)[C@@H](CO)O[C@H]12 [Cyclouridine] | 0 | 0 |  |  | 
OC[C@H]1O[C@@H](n2cnc3c(O)ncnc32)[C@H](O)[C@@H]1O [Inosine] |  |  | 2.55 | 100 | Substrate specificity of purine nucleoside phosphorylase, in words [2]: specific
OC[C@@H]1C[C@@H](O)[C@H](n2cnc3c(O)ncnc32)O1 [3'-Deoxyinosine] |  |  | 0 | 0 | 
Nc1ncnc2c1ncn2[C@@H]1O[C@H](CO)[C@@H](O)[C@@H]1O [Arabinofuranosyl adenine] |  |  |  |  | activity at 10000 µM [2, 5]: 0%
OC[C@H]1O[C@@H](n2cnc3c(O)ncnc32)C[C@@H]1O [2'-Deoxyinosine] |  |  | 2.54 | 100 | Substrate specificity of purine nucleoside phosphorylase, in words [2]: specific
O=c1ccn([C@@H]2O[C@H](CO)[C@@H](O)[C@H]2O)c(=O)[nH]1 [Uridine] | 1.73 | 68 |  |  | Substrate specificity of pyrimidine nucleoside phosphorylase, in words [1]: specific
O=c1[nH]cc([C@@H]2O[C@H](CO)[C@@H](O)[C@H]2O)c(=O)[nH]1 [Pseudouridine] | 0 | 0 |  |  | 
Nc1nc2c(ncn2[C@@H]2O[C@H](CO)[C@@H](O)[C@H]2O)c(=O)[nH]1 [Guanosine] |  |  | 2.15 | 84 | Substrate specificity of purine nucleoside phosphorylase, in words [2]: specific
Nc1ccn([C@H]2C[C@H](O)[C@@H](CO)O2)c(=O)n1 [2'-Deoxycytidine] | 0 | 0 |  |  | 
Nc1nc2c(ncn2[C@H]2C[C@H](O)[C@@H](CO)O2)c(=O)[nH]1 [2'-Deoxyguanosine] |  |  | 2.18 | 85 | Substrate specificity of purine nucleoside phosphorylase, in words [2]: specific
Nc1ccn([C@@H]2O[C@H](CO)[C@@H](O)[C@H]2O)c(=O)n1 [Cytidine] | 0 | 0 |  |  | Substrate specificity of pyrimidine nucleoside phosphorylase, in words [1]: does not recognize them as the substrate
Cc1cn([C@H]2C[C@H](O)[C@@H](CO)O2)c(=O)[nH]c1=O [Thymidine] | 1.71 | 67 |  |  | Substrate specificity of pyrimidine nucleoside phosphorylase, in words [1]: specific
Nc1ncnc2c1ncn2[C@@H]1O[C@H](CO)C[C@H]1O [3'-Deoxyadenosine] |  |  | 0 | 0 | 
Nc1ncnc2c1ncn2[C@@H]1O[C@H](CO)[C@@H](O)[C@H]1O [Adenosine] |  |  | 0.15 |  | activity at 10000 µM [2, 5]: 5%; Substrate specificity of purine nucleoside phosphorylase, in words [2]: does not recognize them as the substrate
Nc1ncnc2c1ncn2[C@H]1C[C@H](O)[C@@H](CO)O1 [2'-Deoxyadenosine] |  |  | 0 | 0 | 
O=c1ccn([C@@H]2O[C@H](CO)[C@@H](O)[C@@H]2O)c(=O)[nH]1 [Arabinofuranosyl uracil] |  | 0 |  |  | 
Cc1cn([C@@H]2O[C@H](CO)[C@@H](O)[C@H]2O)c(=O)[nH]c1=O [Ribofuranosyl thymine] |  | 38 |  |  | 
O=c1ccn([C@H]2C[C@H](O)[C@@H](CO)O2)c(=O)[nH]1 [2'-Deoxyuridine] | 2.55 | 100 |  |  | Substrate specificity of pyrimidine nucleoside phosphorylase, in words [1]: specific
